Series [1] relates to E. coli ESBL strain (CCUG 55971). It counts as cell-based, Escherichia coli. The following applies: 10 mM Tris buffer, bacteria 1 × 10^6 CFU/mL, 1 h 37 °C, then TSB 16–18 h, read at 595 nm. How it is done: (§1) The following uropathogenic bacterial species were used for the in vitro experiments, E. coli CFT073; E. coli ESBL-producing (CCUG 55197); K. pneumoniae (ATCC 25955); K. pneumoniae multidrug resistant (MDR) (CCUG 58547); and P. aeruginosa (ATCC 27853). Clinical isolates were obtained from the Department of Clinical Microbiology, Karolinska University Hospital, Solna, Sweden. Bacteria were cultured aerobically overnight on blood agar plates at 37 °C. For each bacterial species, 20 clinical isolates were included. For further assessment of biofilm formation, the E. coli isolate #12 from a child with pyelonephritis was chosen. The isolate expresses both curli and cellulose, as well as type 1 fimbriae and produces biofilm as measured on microtiter plates One-step knockout of bcsA and csgBA were carried out using the methods as described previously. The following mutants were used: WE1 bcsA::Cm (deficient in cellulose production), WE11 csgBA::Cm (deficient in curli production), and WE16 csgBA bscA::Cm (deficient in both cellulose and curli production). E. coli CFT073 was used for all experiments where nothing else is stated.
(§2) MIC of CD4-PP was evaluated against the type strains and the 20 clinical bacterial isolates using a two-step micro-dilution assay adapted for testing AMPs. The concentrations of CD4-PP were prepared double strength with two-fold serial dilutions ranging from 50 to 0.78 µM in 50 µL of 10 mM Tris buffer in a U-bottom 96-well plate (Corning Incorporated).
(§3) Bacteria were grown to mid-log phase before diluting to a final concentration of 1 × 10^6 CFU/mL in 10 mM Tris buffer using a Densichek Plus (BioMérieux). To each well, 50 µL suspension was added and incubated at 37 °C for 1 h and the final concentrations of peptide tested were from 25 to 0.39 µM. […] The MIC was read spectrophotometrically at 595 nm. MIC was defined as the lowest concentration of CD4-PP which inhibits bacterial growth. The effects of salt ions on the antibacterial activities of CD4-PP were assessed against E. coli (ATCC 25922) and P. aeruginosa (ATCC 27853) type strains. […]

For a further series, the system named is E. coli CFT073. It counts as cell-based, Escherichia coli. How it is done: as §1, §2, §3
For series [2], the system named is MDR K. pneumoniae (CCUG 58547). In kind it is cell-based, Klebsiella pneumoniae. Conditions: 10 mM Tris buffer, bacteria 1 × 10^6 CFU/mL, 1 h 37 °C, then TSB 16–18 h, read at 595 nm. How it is done: as §1, with “The following mutants were used: WE1 bcsA::Cm (deficient in cellulose production), WE11 csgBA::Cm (deficient in curli production), and WE16 csgBA bscA::Cm (deficient in both cellulose and curli production). E. coli CFT073 was used for all experiments where nothing else is stated.” left out
MIC of CD4-PP was evaluated against the type strains and the 20 clinical bacterial isolates using a two-step micro-dilution assay adapted for testing AMPs. […]
Bacteria were grown to mid-log phase before diluting to a final concentration of 1 × 10^6 CFU/mL in 10 mM Tris buffer using a Densichek Plus (BioMérieux). […] The MIC was read spectrophotometrically at 595 nm. […] The effects of salt ions on the antibacterial activities of CD4-PP were assessed against E. coli (ATCC 25922) and P. aeruginosa (ATCC 27853) type strains. […]

In series [3] the target is aureolysin (Staphylococcus aureus, UniProt P81177). Description: Proteolytic stability against aureolysin. It counts as in vitro ADME. The following applies: bacterial protease aureolysin; percentage of intact peptide at time points by LC–MS. How it is done:
A major limitation of AMPs as potential drug candidates is due to their inherent proteolytic instability, and endogenous AMPs are readily degraded by both host- and pathogen-proteases. […] Therefore, the stability of CD4-PP was tested against this enzyme. The percentage of the intact peptide at different time points was monitored using LC–MS, and compared to LL-37 as a control. […] In contrast, CD4-PP is stable for up to 6 h (Supplementary Fig. S2).
[picture] Supplementary Figure S2.

In series [4] the test system is Klebsiella pneumoniae (ATCC 25955). It counts as cell-based. Conditions: 10 mM Tris buffer, bacteria 1 × 10^6 CFU/mL, 1 h 37 °C, then TSB 16–18 h, read at 595 nm. How it is done:
as §1, §2
(§4) Bacteria were grown to mid-log phase before diluting to a final concentration of 1 × 10^6 CFU/mL in 10 mM Tris buffer using a Densichek Plus (BioMérieux). To each well, 50 µL suspension was added and incubated at 37 °C for 1 h and the final concentrations of peptide tested were from 25 to 0.39 µM. […] The MIC was read spectrophotometrically at 595 nm. MIC was defined as the lowest concentration of CD4-PP which inhibits bacterial growth. The effects of salt ions on the antibacterial activities of CD4-PP were assessed against E. coli (ATCC 25922) and P. aeruginosa (ATCC 27853) type strains. The following salts were used: sodium chloride (NaCl), ammonium chloride (NH4Cl), calcium chloride (CaCl2), magnesium chloride (MgCl2) and ferric chloride (FeCl3). All salts were purchased from Merck.

Series [5] concerns aureolysin. Description: bacterial protease aureolysin. The following applies: up to 6 h.
Series [6] relates to Pseudomonas aeruginosa (ATCC 27853). It counts as cell-based. The protocol:
as §1, §2, §4

Setting [7] is: stated in SEM method, bacteria at 10^8 CFU/mL in 10 mM Tris buffer.

Converted amounts (≈) assume the structure as drawn. Read-outs that look alike come from different tables or passages of the source. Peptide text beside a SMILES is read from it. Some results are limits rather than exact numbers.

Sequence of aureolysin (Staphylococcus aureus, UniProt P81177) (P81177 209-509): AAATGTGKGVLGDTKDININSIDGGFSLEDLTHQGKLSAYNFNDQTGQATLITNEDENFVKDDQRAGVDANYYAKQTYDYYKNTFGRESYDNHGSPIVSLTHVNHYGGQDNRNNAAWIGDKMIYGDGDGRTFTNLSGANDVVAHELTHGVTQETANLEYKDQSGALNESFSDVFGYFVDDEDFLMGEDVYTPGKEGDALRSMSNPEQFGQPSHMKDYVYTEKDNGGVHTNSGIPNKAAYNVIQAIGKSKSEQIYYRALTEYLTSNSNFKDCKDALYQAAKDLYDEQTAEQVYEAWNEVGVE

As to `CC[C@H](C)[C@@H]1NC(=O)[C@H](CCCNC(=N)N)NC(=O)[C@H](CCCCN)NC(=O)[C@H](C(C)C)NC(=O)[C@H]([C@@H](C)CC)NC(=O)[C@H](CCCNC(=N)N)NC(=O)[C@H](CCCCN)NC(=O)CNC(=O)CNC(=O)[C@@H]2CCCN2C(=O)[C@H](CS)NC(=O)[C@H](CCCNC(=N)N)NC(=O)[C@H](CC(C)C)NC(=O)[C@H](Cc2ccccc2)NC(=O)[C@H](C)NC(=O)[C@H](CCCCN)NC(=O)[C@H]([C@@H](C)CC)NC(=O)[C@H](CCCNC(=N)N)NC(=O)[C@H](CCCCN)NC(=O)[C@H](C(C)C)NC(=O)[C@H]([C@@H](C)CC)NC(=O)[C@H](CCCNC(=N)N)NC(=O)[C@H](CCCCN)NC(=O)CNC(=O)CNC(=O)[C@@H]2CCCN2C(=O)CNC(=O)[C@H](CCCNC(=N)N)NC(=O)[C@H](CC(C)C)NC(=O)[C@H](Cc2ccccc2)NC(=O)[C@H](C)NC(=O)[C@H](CCCCN)NC1=O` [CD4-PP] (cyclo(AFLRCPGGKRIVKRIKAFLRGPGGKRIVKRIK)), the MIC in series [1] worked out at 0.78 µM (≈ 2.81 µg/mL); in the series on E. coli CFT073 (CFT073, 1 h) it was 0.78 µM (≈ 2.81 µg/mL); in series [2], 1.56 µM (≈ 5.62 µg/mL); in series [4], 1.56 µM (≈ 5.62 µg/mL). For the same compound, the “time for which the peptide is stable with aureolysin” value at aureolysin [3] is “up to 6 h”.

CPGGKRIVKRIKAFLRGPGGKRIVKRIKAFLR: the not cleaved result with aureolysin [5] is “stable for up to 6 h”.

In the case of LLGDFFRKSKEKIGKEFKRIVQRIKDFLRNLVPRTES, the cleaved bond entry in the series with aureolysin [5] was “L31-V32”.

On to `CC[C@H](C)[C@H](NC(=O)[C@H](CCCCN)NC(=O)[C@H](CCC(=O)O)NC(=O)[C@H](CCCCN)NC(=O)[C@H](CO)NC(=O)[C@H](CCCCN)NC(=O)[C@H](CCCNC(=N)N)NC(=O)[C@H](Cc1ccccc1)NC(=O)[C@H](Cc1ccccc1)NC(=O)[C@H](CC(=O)O)NC(=O)CNC(=O)[C@H](CC(C)C)NC(=O)[C@@H](N)CC(C)C)C(=O)NCC(=O)N[C@@H](CCCCN)C(=O)N[C@@H](CCC(=O)O)C(=O)N[C@@H](Cc1ccccc1)C(=O)N[C@@H](CCCCN)C(=O)N[C@@H](CCCNC(=N)N)C(=O)N[C@H](C(=O)N[C@H](C(=O)N[C@@H](CCC(N)=O)C(=O)N[C@@H](CCCNC(=N)N)C(=O)N[C@H](C(=O)N[C@@H](CCCCN)C(=O)N[C@@H](CC(=O)O)C(=O)N[C@@H](Cc1ccccc1)C(=O)N[C@@H](CC(C)C)C(=O)N[C@@H](CCCNC(=N)N)C(=O)N[C@@H](CC(N)=O)C(=O)N[C@@H](CC(C)C)C(=O)N[C@H](C(=O)N1CCC[C@H]1C(=O)N[C@@H](CCCNC(=N)N)C(=O)N[C@H](C(=O)N[C@@H](CCC(=O)O)C(=O)N[C@@H](CO)C(=O)O)[C@@H](C)O)C(C)C)[C@@H](C)CC)C(C)C)[C@@H](C)CC` [LL-37], for which the “MIC (reference concentration used for SEM)” value (in the series with E. coli CFT073 (setting [7]); in series [6] (setting [7])) was 15.62 µM each time. Also, the “degradation by aureolysin (in words)” value on aureolysin [3] was “rapidly degraded within minutes”. Besides, the MIC in series [6] (CaCl2 2.5 mM) is greater than 10 µM; in series [6] (FeCl3 4 µM), 2.5 µM (≈ 11.2 µg/mL); in series [6] (MgCl2 1 mM), 5 µM (≈ 22.5 µg/mL); in series [6] (NH4Cl 6 µM), 1.25 µM (≈ 5.62 µg/mL); in series [6] (NaCl 150mM) it was 5 µM (≈ 22.5 µg/mL); in series [6] (salt series: Tris-buffer 10mM, no added salt), 1.25 µM.

In general, MIC refers to the smallest concentration in the dilution series that meets the test's criterion for growth inhibition.

For the origin of these results see PMC9276586 (Cellular and Molecular Life Sciences: CMLS, 2022).
